# Experimental data published in ChEMBL document CHEMBL1921721, “Benzenepolycarboxylic acids with potential anti-hemorrhagic properties and structure-activity relationships” (Bioorg Med Chem, 2011).
# Assays:
# [1] = test system: Mus musculus; assay: Antihemorrhagic activity in ddY mouse assessed as inhibition of Protobothrops flavoviridis venom-induced hemorrhagic lesion formation compound incubated with venom for 10 mins and administered subcutaneously measured after 24 hrs; format: functional, organism-based
# [2] = Dissociation constant, pKa of the compound; format: physicochemical
# [3] = test system: Mus musculus; assay: Ratio of caffeic acid IC50 to compound IC50 for antihemorrhagic activity in ddY mouse assessed as inhibition of Protobothrops flavoviridis venom-induced hemorrhagic lesion formation compound incubated with venom for 10 mins and administered subcutaneously measured after 24 hrs; format: functional
# [4] = test system: Mus musculus; assay: Ratio of benzoic acid IC50 to compound IC50 for antihemorrhagic activity in ddY mouse assessed as inhibition of Protobothrops flavoviridis venom-induced hemorrhagic lesion formation compound incubated with venom for 10 mins and administered subcutaneously measured after 24 hrs; format: functional
Compound,IC50 [1],pKa [2],Ratio IC50 [3],Ratio IC50 [4]
O=C(O)c1ccccc1[N+](=O)[O-],260 nM,,,
O=C(O)c1cc(C(=O)O)c(C(=O)O)cc1C(=O)O [PYROMELLITIC ACID],35 nM,1.87,,
O=C(O)c1cc(C(=O)O)cc(C(=O)O)c1,67 nM,2.98,,
O=C(O)c1cc(C(=O)O)c(C(=O)O)c(C(=O)O)c1C(=O)O [BENZENEPENTACARBOXYLIC ACID],43 nM,1.93,,
O=C(O)c1ccccc1 [BENZOIC ACID],200 nM,,,
Cc1ccc(C(=O)O)cc1 [4-METHYLBENZOIC ACID],220 nM,4.37,,
O=C(O)c1ccc(C(=O)O)cc1 [TEREPHTHALIC ACID],90 nM,,2,2
O=C(O)c1c(C(=O)O)c(C(=O)O)c(C(=O)O)c(C(=O)O)c1C(=O)O [MELLITIC ACID],43 nM,1.15,,
O=C(O)/C=C/c1ccc(O)c(O)c1 [CAFFEIC ACID],,4.58,,
O=C(O)c1ccc(O)cc1 [PARABEN],200 nM,4.57,,
O=C(O)c1ccccc1C(=O)O [PHTHALIC ACID],100 nM,,2,2
O=C(O)/C=C/C=C/C(=O)O,110 nM,,,
O=C(O)c1ccc([N+](=O)[O-])cc1 [4-NITROBENZOIC ACID],240 nM,3.42,,
O=C(O)c1cccc(C(=O)O)c1 [ISOPHTHALIC ACID],100 nM,,2,2
O=C(O)c1ccccc1Cl,250 nM,2.97,,
O=C(O)c1ccc(C(=O)O)c(C(=O)O)c1,62 nM,2.84,,
O=C(O)c1ccccc1O [SALICYLIC ACID],200 nM,,,
O=C(O)c1cccc(O)c1 [3-HYDROXYBENZOIC ACID],200 nM,4.08,,
